From patent EP0879051B9, “RATE-CONTROLLED TRANSDERMAL ADMINISTRATION OF RISPERIDONE” (JANSSEN PHARMACEUTICA N.V., priority 1995, dated 1996) come the findings set out here.

The series in a line: In vitro transdermal permeation of risperidone, two-compartment diffusion cell. The series is classed as in vitro ADME, hairless rats. The procedure: Experimental Part : In vitro study of the transdermal permeation of risperidone.
An in vitro model using a vertical, two-compartment diffusion cell assembly mounted with freshly excised full thickness abdominal skin of hairless rats (Iffa credo) was used in this study. […] The receptor solution in all experiments consisted of Hanks Balanced Salt Solution (Gibco BRL) with sodium azide). The skin permeation profile was followed for up to 50 h by sampling the receptor solution and assaying the drug concentration by measuring the radioactivity (Ready Safe, Beckmann-Wallac 1410LKB). The ratio of the cumulated quantities detected in the receptor compartment to the skin area (ng/cm^2) were plotted in function of the time and the flux of risperidone through the skin in the presence of various solvents and skin permeation enhancers was deduced from the linear part of the plotted results.

Where [1] appears, read: Experiment 2: donor borate buffer pH 10, 0.1 M (900 µl/ml) + ethanol (95%; 100 µl/ml) + risperidone (100 µg/ml).
[2] abbreviates: Experiment 4: donor propylene glycol + lauric acid (LA) 5%, risperidone 10 mg/ml.
Where [3] appears, read: Experiment 4: donor propylene glycol + oleic acid (OA) 5%, risperidone 10 mg/ml.
Where [4] appears, read: donor propylene glycol, 0% enhancer, risperidone 10 mg/ml.

Take `Cc1nc2n(c(=O)c1CCN1CCC(c3noc4cc(F)ccc34)CC1)CCCC2` [risperidone, 3-[2-[4-(6-fluoro-1,2-benzisoxazol-3-yl)-1-piperidinyl]ethyl]-6,7,8,9-tetrahydro-2-methyl-4H-pyrido[1,2-a]pyrimidin-4-one]: where the note is “Experiment 1: donor borate buffer pH 10, 0.1 M + risperidone at 40mg/ml”, the flux is 0.181 µg/cm^2.h. Besides, under setting [1], the flux amounted to 0.869 µg/cm^2.h and the latency period was found to be 13.9 h. Further, the “flux (1%)” value (Experiment 3: donor propylene glycol + eucalyptus oil 1%, risperidone 10 mg/ml) was found to be 4.54 µg/cm^2.h. The “latency period (5%)” value (Experiment 3: donor propylene glycol + eucalyptus oil 5%, risperidone 10 mg/ml) was found to be 6.2 h. Moreover, the “flux (5%)” value (Experiment 3: donor propylene glycol + eucalyptus oil 5%, risperidone 10 mg/ml, very high flux probably due to skin damage) is on record as 126.74 µg/cm^2.h. For the same molecule, under “Experiment 3: donor propylene glycol + eucalyptus oil (printed 'LA %'), risperidone 10 mg/ml”, the “latency period (LA %)” value came to 15.2 h. In addition, under setting [2], the “flux (5% LA)” value is 15.39 µg/cm^2.h and the “latency period (5% LA)” value stood at 4.3 h. Moreover, under setting [3], the “flux (5% OA)” value was determined as 18.9 µg/cm^2.h and the “latency period (5% OA)” value worked out at 17 h. Under setting [4], the “flux (0%)” value was 3.89 µg/cm^2.h and the “latency period (0%)” value stood at 14.2 h.
